Data set [1] has as its system Mus musculus. The data set can be described thus: Antiinflammatory activity in mouse assessed as reduction PMA-induced ear edema at 50 ug/ear administered relative to control. It is filed as functional. On the set-up: scale not given: the % may be the effect or the level left. The note with it: at 50 µg/ear.
Data set [2] is described as follows: Inhibition of tubulin polymerization.
A short description of data set [3]: Inhibition of cell division of fertilized sea urchin egg. The note with it: echinoidea.
Data set [4] is described as follows: Inhibition of nuclear division of fertilized sea urchin egg. The following applies: echinoidea.
For data set [5], the system named is Mus musculus. The experiment in a line: Antiinflammatory activity in mouse assessed as reduction PMA-induced ear edema. Format: functional.
Data set [6] has as its system Mus musculus. The data set can be described thus: Antiinflammatory activity in ip dosed mouse assessed as inhibition of writhing. It is filed as functional. On the technique in general: An intraperitoneal irritant provokes the stretching counted in writhing tests.
The subject of data set [7] is Mus musculus. The data set can be described thus: Antiinflammatory activity in ip dosed mouse assessed as reduction PMA-induced ear edema. Format: functional.

Values after ≈ are worked out from the molar mass of the structure shown.

With `CC(=O)O[C@H]1[C@H](O)[C@H](Oc2c(O)c(C)cc3c2[C@@H](C)CC[C@@H]3[C@@H](C)CCC=C(C)C)OC[C@H]1O`, in the data set on Mus musculus [1], the Activity is recorded as 75%.
In the case of `CC(=O)O[C@@H]1CO[C@@H](Oc2c(O)c(C)cc3c2[C@@H](C)CC[C@@H]3[C@@H](C)CCC=C(C)C)[C@@H](O)[C@@H]1O`, the Activity in the data set on Mus musculus [1] was 75%.
Compound `C=C(C)[C@H]1C2=CC(C(=O)OC)=C(C[C@H](C(C)C)[C@H]3O[C@H]3C3=C[C@H]1OC3=O)O2` [PSEUDOPTEROLIDE] displayed an ED50 in data set [2] of 8 µg/mL (≈ 21.5 µM). In addition, the Activity in the data set on Mus musculus [1] was 83%; in data set [3] it was “Non-toxic”; in data set [4], “Non-toxic”.
As to `CC(C)=C[C@H]1C[C@H](C)[C@H]2CC[C@H](C)c3c(O[C@@H]4OC[C@@H](O)[C@H](O)[C@H]4O)c(O)c(C)c1c32` [PSEUDOPTEROSIN A], the Activity in the data set with Mus musculus [1] stood at 75%. In addition, the ED50 in the data set with Mus musculus [5] is 8.3 µg; with Mus musculus [6], 4 mg/kg; with Mus musculus [7] it was 10 mg/kg.
Take `CC(=O)O[C@H]1[C@H](Oc2c(O)c(C)c3c4c2[C@@H](C)CC[C@@H]4[C@@H](C)C[C@@H]3C=C(C)C)OC[C@@H](O)[C@@H]1O` [PSEUDOPTEROSIN B]: in the data set with Mus musculus [1], the Activity was 75%. In addition, the ED50 in the data set on Mus musculus [6] was determined as 4 mg/kg; in the data set on Mus musculus [7], 10 mg/kg.
In the case of `CC(=O)O[C@@H]1[C@@H](O)[C@H](Oc2c(O)c(C)c3c4c2[C@@H](C)CC[C@@H]4[C@@H](C)C[C@@H]3C=C(C)C)OC[C@H]1O` [PSEUDOPTEROSIN C], in the data set with Mus musculus [1], the Activity is 75%. The results for the ED50 in the data set on Mus musculus [6] and in the data set on Mus musculus [7] were 4 mg/kg and 10 mg/kg, respectively.
Regarding `CC(=O)O[C@@H]1CO[C@@H](Oc2c(O)c(C)c3c4c2[C@@H](C)CC[C@@H]4[C@@H](C)C[C@@H]3C=C(C)C)[C@H](O)[C@H]1O` [PSEUDOPTEROSIN D], the Activity in the data set with Mus musculus [1] was 75%. Also, the ED50 in the data set with Mus musculus [6] worked out at 4 mg/kg; in the data set on Mus musculus [7] it was 10 mg/kg.
As for `CC(C)=CCC[C@H](C)[C@H]1CC[C@H](C)c2c1cc(C)c(O)c2O[C@@H]1OC[C@@H](O)[C@@H](O)[C@@H]1O` [SECO-PSEUDOPTEROSIN A], in the data set on Mus musculus [1], the Activity is reported as 75%.
Still for that read-out and setting: the value for `CC(=O)O[C@@H]1[C@H](Oc2c(O)c(C)cc3c2[C@@H](C)CC[C@@H]3[C@@H](C)CCC=C(C)C)OC[C@@H](O)[C@H]1O` [SECO-PSEUDOPTEROSIN B] was 75%.

These data come from ChEMBL document CHEMBL1150734, “Marine soft corals of the genus Pseudopterogorgia: a resource for novel anti-inflammatory diterpenoids” (J Nat Prod, 1987).
